From ChEMBL document CHEMBL1144455, “A small molecule-kinase interaction map for clinical kinase inhibitors” (Nat Biotechnol, 2005)

Tests used:
Activated CDC42 kinase 1 = Activated CDC42 kinase 1 (Homo sapiens, UniProt Q07912)
[1] = molecular target: Tyrosine-protein kinase Lyn (Homo sapiens, UniProt P07948)
Aurora kinase C = molecular target: T1, Aurora kinase C (Homo sapiens, UniProt Q9UQB9)
T1 sequence (Q9UQB9 whole entry): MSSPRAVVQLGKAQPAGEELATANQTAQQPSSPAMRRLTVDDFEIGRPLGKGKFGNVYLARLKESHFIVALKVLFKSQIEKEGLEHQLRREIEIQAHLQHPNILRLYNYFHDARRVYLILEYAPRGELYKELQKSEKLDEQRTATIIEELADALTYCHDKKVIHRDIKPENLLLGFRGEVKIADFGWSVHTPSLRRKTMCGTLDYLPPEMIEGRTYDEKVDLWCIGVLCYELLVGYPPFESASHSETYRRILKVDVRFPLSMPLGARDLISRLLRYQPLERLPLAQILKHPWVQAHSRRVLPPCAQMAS

Chain of Tyrosine-protein kinase Lyn (P07948 whole entry): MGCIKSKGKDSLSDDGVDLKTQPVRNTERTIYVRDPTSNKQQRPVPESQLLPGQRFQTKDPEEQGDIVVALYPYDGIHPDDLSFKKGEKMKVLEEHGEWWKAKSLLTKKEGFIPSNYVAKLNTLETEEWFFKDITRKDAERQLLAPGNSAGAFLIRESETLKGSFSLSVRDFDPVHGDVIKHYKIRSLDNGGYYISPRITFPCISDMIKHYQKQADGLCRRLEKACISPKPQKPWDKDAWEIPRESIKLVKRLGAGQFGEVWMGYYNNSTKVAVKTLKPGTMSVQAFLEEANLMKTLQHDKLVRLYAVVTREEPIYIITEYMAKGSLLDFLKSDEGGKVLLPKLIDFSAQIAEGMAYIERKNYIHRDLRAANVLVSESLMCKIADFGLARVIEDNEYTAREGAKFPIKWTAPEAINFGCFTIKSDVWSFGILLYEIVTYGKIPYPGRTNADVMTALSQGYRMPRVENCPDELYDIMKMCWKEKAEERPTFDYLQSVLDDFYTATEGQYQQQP
Chain of Activated CDC42 kinase 1 (Q07912 whole entry): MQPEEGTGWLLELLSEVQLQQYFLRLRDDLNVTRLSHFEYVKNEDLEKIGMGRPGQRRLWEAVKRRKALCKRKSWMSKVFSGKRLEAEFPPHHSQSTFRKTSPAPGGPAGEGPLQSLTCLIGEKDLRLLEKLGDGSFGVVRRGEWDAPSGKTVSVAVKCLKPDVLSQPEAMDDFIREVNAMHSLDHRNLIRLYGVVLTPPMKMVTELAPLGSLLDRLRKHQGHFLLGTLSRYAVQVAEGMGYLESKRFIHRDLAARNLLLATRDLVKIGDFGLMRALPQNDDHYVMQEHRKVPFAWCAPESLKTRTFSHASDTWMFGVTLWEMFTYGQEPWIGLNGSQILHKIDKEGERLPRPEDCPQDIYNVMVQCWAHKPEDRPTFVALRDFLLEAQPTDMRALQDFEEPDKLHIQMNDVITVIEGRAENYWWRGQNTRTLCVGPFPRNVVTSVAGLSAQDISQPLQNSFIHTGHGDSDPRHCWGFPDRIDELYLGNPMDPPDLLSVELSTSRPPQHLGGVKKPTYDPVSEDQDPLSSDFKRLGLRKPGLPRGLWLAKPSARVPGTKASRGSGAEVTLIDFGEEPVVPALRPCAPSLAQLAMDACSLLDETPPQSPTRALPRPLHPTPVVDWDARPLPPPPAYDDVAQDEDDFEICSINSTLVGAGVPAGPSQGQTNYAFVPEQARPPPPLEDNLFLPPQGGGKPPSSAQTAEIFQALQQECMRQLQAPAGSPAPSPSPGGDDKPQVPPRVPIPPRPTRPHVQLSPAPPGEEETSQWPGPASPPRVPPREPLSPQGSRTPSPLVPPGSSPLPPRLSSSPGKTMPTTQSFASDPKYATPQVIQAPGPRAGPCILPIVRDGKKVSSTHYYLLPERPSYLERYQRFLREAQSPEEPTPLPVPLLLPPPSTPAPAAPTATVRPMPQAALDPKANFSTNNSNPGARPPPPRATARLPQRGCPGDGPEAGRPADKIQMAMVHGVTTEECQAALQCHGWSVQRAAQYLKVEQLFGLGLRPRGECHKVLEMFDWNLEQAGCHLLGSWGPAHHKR

Row | Structure (SMILES) | Kd (Activated CDC42 kinase 1) [nM] | Kd [1] [nM] | Kd (Aurora kinase C) [nM]
1 | CCOc1cc2ncc(C#N)c(Nc3ccc(F)c(Cl)c3)c2cc1NC(=O)/C=C/CN(C)C [PELITINIB] | 890 | 960 | –
2 | Oc1c2ccccc2c2c3c(cccc13)N=N2 [SP-600125] | – | – | 5300
